Laboratory results: patent publication US9873705B2, “Vinylogous thioester compounds and methods of use” (THE TRUSTEES OF DARTMOUTH COLLEGE, priority 2015, dated 2018)
Entries after “also recorded” stand apart in the source; their conditions may differ.

How the values were obtained:
[1] = test system: mitochondria of U87-MG cells; assay: Mitotracker Red CMXRos mitochondrial phenotype imaging; type: cell-based, human; conditions: 24 h, 2 or 4 μM
Experimental: To examine whether there was a change in the mitochondrial phenotype of cells following Y102 treatment, Mitotracker Red CMXRos, a fluorescent dye whose accumulation is dependent upon membrane […], was used.
The data for FIG. 7 was obtained as follows: U87-MG cells were plated on poly-L-lysine (Sigma) coated coverslips at a concentration of 50,000 cells/well in a 24-well plate and allowed to adhere overnight. Cells were treated for 24 h with DMSO, 2 μM Y102, 4 μM Y102, or 50 μM HCQ. 30 minutes prior to collection, cells were stained with 100 nM Mitotracker Red CMXRos (Cell Signaling Technology, red) in media at 37° C. Cells were fixed for 10 minutes with 4% methanol-free paraformaldehyde, permeabilized for 15 minutes with 0.5% Triton X-100, blocked with immunofluorescence buffer (2%[v/v] goat serum, 0.2%[v/v] Triton X-100 and 0.05%[w/v] sodium azide in PBS) for 1 h, and stained for 1 h at room temperature for the autophagy marker p62 using anti-p62/SQSTM-1 D-3 (Santa Cruz, 1:500, 1 h at room temperature). Following 3 washes with PBST, cells were stained with goat anti-mouse 488 (Jackson ImmunoResearch Laboratories) secondary antibody for 1 h (green; not shown). After an additional two washes with PBST, cell nuclei were stained with 0.33 μg/mL DAPI (Molecular Probes) for 5 minutes (blue). Coverslips were mounted on glass slides with ProLong Gold antifade medium. […]

[2] = test system: ira2Δ yeast (NF1 deficient yeast); assay: Yeast growth inhibition (dose response) assay, OD600; type: cell-based, Saccharomyces cerevisiae; conditions: isogenic yeast system; 0 to 100 μM, 18 h
From the text: A high-throughput screen was used to identify compounds that are synthetically lethal with NF1 loss (14). A synthetic lethal interaction occurs when loss of two genes due to genetic deletion or pharmacologic inhibition is nonlethal independently but is lethal in combination (FIG. 1) (17). The first gene lost is NF1, and the loss of the second gene is mimicked through treatment with the screened compounds. The screen used Saccharomyces cerevisiae lacking IRA2 (ira2Δ), a yeast homologue of NF1, as a model for NF1 loss. ira2Δ yeast have increased RAS-GTP, which in turn activates MAPK and PKA pathways that mimic the pathways that are increased in NF1 deficient Schwann cells (18). […]
Candidate compounds were screened in ira2Δ yeast cells to identify target compounds synthetically lethal to NF1 loss. Growth inhibition of yeast was measured using the optical density of yeast cultures treated with compounds compared to DMSO control (14).
Growth inhibition assays as described above were performed on ira2Δ yeast cells and NF1-deficient glioblastoma cells. […] Following 18 h treatment, OD600 was measured using a THERMOmax (Molecular Devices) microplate reader and SOFTmax Pro 4.3 LS software. […] AlamarBlue fluorescence was determined with a Spectramax M2 (Molecular Devices) plate reader at an excitation of 544 nm and an emission of 590 nm using SoftMax Pro 3 software. […]

[3] = test system: p62 and LC3B protein expression in U87-MG cells; assay: Western blot of autophagy markers p62 and LC3B; type: cell-based, human
From the text: Ras dysregulated tumors depend on autophagy to remove damaged mitochondria and allow for their survival. […] LC3B I is lipidated to form LC3B II following induction of autophagy. LC3B II is recruited and subsequently integrated into the autophagosome. p62 functions as an adaptor protein in autophagy by binding to both ubiquitin-labeled damaged cargo such as protein aggregates or mitochondria and LC3B II to facilitate cargo uptake into the autophagosome. Degradation of the cargo occurs when the autophagosome fuses with the lysosome; when autophagy is inhibited with hydroxychloroquine (HCQ), a drug that prevents acidification of the lysosome, both LC3B II and p62 accumulate as derogation of the autophagosome is prevented, making them valuable markers of autophagic flux.
The data for FIG. 4 was obtained as follows: U87-MG cells were plated in 6-well plates at a concentration of 500,000 cells/well and allowed to adhere overnight. Cells were treated for 12 h with either DMSO or 2 μM Y102, followed by an additional 12 h co-treatment with or without 50 μM HCQ. Following treatment, cells were harvested using 0.25% trypsin, rinsed with PBS, and lysed with 75 μL modified RIPA buffer (50 mM NaCl, 1% v/v nonidet P40, 0.5% w/v sodium deoxycholate, 0.05% w/v sodium dodecyl sulfate, 50 mM Tris pH 8.0) containing 1 mM NaVO4, 1 mM NaF, 1 mM phenylmethylsulfonyl fluoride, 0.1 μg/mL leupeptin, 100 μM benzamidine HCl, 1 μM aprotinin, 0.1 μg/mL soybean trypsin inhibitor, 0.1 μg/mL pepstatin, and 0.1 μg/mL antipain. Protein was quantified using a BCA assay kit (Pierce). 40 μg of protein prepared in 1× Laemmli sample buffer (50 mM Tris pH 6.8, 0.02% w/v bromophenol blue, 2% w/v sodium dodecyl sulfate, 10% v/v glycerol, 1% v/v beta-mercaptoethanol, 12.5 mM EDTA) was separated on a 4-15% polyacrylamide gel using sodium dodecyl sulfate-polyacrylamide gel electrophoresis. Protein was transferred to nitrocellulose membrane, blocked in 5% nonfat milk in TBST, and probed with primary antibodies anti-LC3BI/II (Cell Signaling, 1:1000, overnight at 4° C.), anti-p62/SQSTM-1 D-3 (Santa Cruz, 1:1000, 1 h at room temperature), or anti-α-tubulin B-1-2-5 (Santa Cruz, 1:10000, 1 h at room temperature) in 2% nonfat milk in TBST. Blots were incubated in 1:20,000 anti-rabbit HRP or 1:10,000 anti-mouse HRP secondary antibodies diluted in 2% nonfat milk in TBST for 1 h at room temperature. Film was exposed to standard ECL (Pierce)-coated blots and developed using a standard film processor.

SMILES: Cn1cnnc1S/C=C/C(=O)c1ccc(F)cc1 [Y102]
- mitochondrial phenotype (Mitotracker Red CMXRos) [1]: altered mitochondrial phenotype; also recorded: perinuclear clustering of the mitochondria
- mitochondrial phenotype (Mitotracker Red CMXRos) ([1]; listed as Y1022): perinuclear accumulation of the mitochondria
- sensitivity of NF1 deficient yeast (growth) [2]: selectively sensitive
- LC3B I/II conversion (LC3B II accumulation) ([3]; 12 hours Y102 followed by 12 hours HCQ co-treatment): LC3B II accumulation occurred, but not as robustly as with HCQ alone; also recorded: LC3B I/II conversion was seen
- p62 accumulation (autophagy marker) ([3]; U87-MG, Western blot, 24 hours, 2 μM Y102, 50 μM HCQ): accumulation of the autophagy marker p62
- LC3B I/II conversion (LC3B II accumulation) ([3]; U87-MG, Western blot, single agent, 2 μM Y102, 50 μM HCQ): not found to accumulate; also recorded: not LC3B I/II conversion
